Experimental findings from BindingDB's records for doi:10.1016/j.ejmech.2021.113795 (Hong Kong Polytechnic University, 2021) are described below.

pIC50: −log10 of the molar value.

Data set [1] addresses ATP-dependent translocase ABCB1 (Homo sapiens, UniProt P08183). Briefly: Inhibition of P-glycoprotein in human LCC6MDR cells assessed as reversal fold by measuring reduction in paclitaxel by measuring paclitaxel IC50 at 1 uM after 5 days by Cell Titer-Glo luminescence assay. Background: In ATP-based viability assays light output follows the ATP content of the culture.
A short description of data set [2]: Inhibition of MRP1 in human 2008/MRP1 cells assessed as reversal of doxorubicin resistance by measuring doxorubicin IC50 at 1 uM after 5 days by Cell Titer-Glo luminescence assay.

Chain of ATP-dependent translocase ABCB1 (P08183 whole entry): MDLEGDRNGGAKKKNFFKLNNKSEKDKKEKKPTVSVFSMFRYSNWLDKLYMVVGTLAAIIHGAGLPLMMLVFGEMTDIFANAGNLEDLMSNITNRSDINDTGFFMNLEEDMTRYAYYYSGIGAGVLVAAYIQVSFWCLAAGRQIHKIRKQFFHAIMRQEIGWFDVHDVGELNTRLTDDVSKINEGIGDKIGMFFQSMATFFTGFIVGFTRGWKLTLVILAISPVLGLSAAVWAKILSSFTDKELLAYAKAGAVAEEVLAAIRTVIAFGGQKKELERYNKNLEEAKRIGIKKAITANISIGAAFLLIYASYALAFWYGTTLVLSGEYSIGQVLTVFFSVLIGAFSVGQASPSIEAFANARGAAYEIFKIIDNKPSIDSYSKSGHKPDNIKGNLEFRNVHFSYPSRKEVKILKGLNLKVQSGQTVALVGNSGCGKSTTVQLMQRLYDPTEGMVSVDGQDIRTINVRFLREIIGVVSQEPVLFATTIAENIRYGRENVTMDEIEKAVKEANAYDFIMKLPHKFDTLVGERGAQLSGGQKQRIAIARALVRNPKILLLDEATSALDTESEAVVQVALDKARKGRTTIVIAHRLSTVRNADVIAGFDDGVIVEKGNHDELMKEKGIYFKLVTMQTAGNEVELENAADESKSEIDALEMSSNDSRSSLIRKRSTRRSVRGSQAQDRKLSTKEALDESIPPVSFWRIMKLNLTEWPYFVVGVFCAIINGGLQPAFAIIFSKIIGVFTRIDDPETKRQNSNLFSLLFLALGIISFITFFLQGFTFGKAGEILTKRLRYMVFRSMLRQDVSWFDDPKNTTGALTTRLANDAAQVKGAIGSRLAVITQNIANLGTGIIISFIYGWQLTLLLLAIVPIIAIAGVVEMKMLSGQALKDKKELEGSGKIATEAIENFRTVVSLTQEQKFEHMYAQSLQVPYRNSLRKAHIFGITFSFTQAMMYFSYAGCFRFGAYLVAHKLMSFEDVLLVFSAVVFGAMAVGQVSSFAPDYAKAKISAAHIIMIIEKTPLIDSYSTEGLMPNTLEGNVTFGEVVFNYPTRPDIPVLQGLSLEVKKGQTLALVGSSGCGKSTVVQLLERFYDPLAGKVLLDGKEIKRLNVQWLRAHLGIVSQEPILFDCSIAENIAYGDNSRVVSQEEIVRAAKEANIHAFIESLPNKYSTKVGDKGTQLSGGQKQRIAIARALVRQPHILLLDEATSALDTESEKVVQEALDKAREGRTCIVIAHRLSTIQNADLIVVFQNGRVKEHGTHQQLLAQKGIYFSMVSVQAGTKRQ

The term IC50 denotes the concentration that inhibits the measured activity by half. A word on the pIC50: it is −log10 of the IC50, conventionally taken in molar units. In the case of `COc1cc(OC)c2c(c1)O[C@H](c1ccc(OC)c(OC)c1)[C@H](OC(=O)c1ccc(F)c(NC(=O)c3cc(OC)c(OC)c(OC)c3)c1)C2`, the concentration for half-maximal inhibition (IC50) in data set [1] is listed as 2.2 nM. Further, in data set [2], the pIC50 is 6.47.

Consider `COc1cc(OC)c2c(c1)O[C@H](c1ccc(OC)c(OC)c1)[C@@H](OC(=O)c1ccc(F)c(NC(=O)c3cc(OC)c(OC)c(OC)c3)c1)C2`, for which, in data set [1], the “IC50” value is 1.8 nM. Also, the pIC50 in data set [2] is 6.45.
